Data taken from patent EP0516015A1, “Substituted decarestrictines, methods for their preparation and use thereof” (HOECHST AKTIENGESELLSCHAFT, priority 1991, dated 1992).
Values after ≈ are worked out from the molar mass of the structure shown.

How the values were obtained:
Herpes II = assay: Antiviral activity in cell culture (CPE, neutral red uptake); assay type: cell-based; conditions: HeLa or Vero cells, 72 h, MHK = concentration at which about 50 % of the cells survived the infection
in vitro = conditions: hela or vero cells
Rhinovirus II = assay: Antiviral activity in cell culture (CPE, neutral red uptake); assay type: cell-based; conditions: Enterovirus; Rhino. II; HeLa or Vero cells, 72 h; MHK = concentration at which about 50 % of the cells survived the infection
Influenza A = assay: microbe, parasite or virus in culture; assay type: cell-based; conditions: 72 h, read-out: MHK
Herpes I = assay: Antiviral activity in cell culture (CPE, neutral red uptake); assay type: cell-based; conditions: HeLa or Vero cells, 72 h, MHK = concentration at which about 50 % of the cells survived the infection
Cholesterinbiosynthese = assay: Inhibition of cholesterol biosynthesis from [14C] sodium acetate in HEP-G2 cell monolayers; assay type: cell-based; conditions: Homo sapiens, HepG2, HEP-G2-Zellen, 1 h preincubation, 3 h with [14C] sodium acetate, read-out: Cholesterin in Prozent der Kontrolle; for activity at 0.01 µM: Konzentration 10⁻⁸ M
From the text: Monolayer von HEP-G2-Zellen in lipoproteinfreiem Nährmedium werden mit entsprechenden Konzentrationen der zu prüfenden Substanzen aus den Beispielen 1, 3, 4, 5, 6, 8 und 15 eine Stunde vorinkubiert. Nach Zugabe der ¹⁴C-markierten Biosynthesevorstufe [¹⁴C]Natriumacetat wird die Inkubation für 3 Stunden fortgesetzt. Danach wird ein Teil der Zellen alkalisch verseift, bei vorheriger Zugabe eines internen Standards von ³H-Cholesterin. Die Lipide der verseiften Zellen werden mit einem Gemisch aus Chloroform-Methanol extrahiert. Dieses Lipidgemisch wird nach Zusatz von Trägercholesterin präparativ dünnschichtchromatographisch aufgetrennt, die Cholesterinbande nach Anfärbung isoliert und die aus dem ¹⁴C-Precursor gebildete Menge ¹⁴C-Cholesterin szintigraphisch bestimmt. In einem aliquoten Teil der Zellen wurde Zellprotein bestimmt, sodaß die in der Zelleinheit pro mg Zellprotein aus ¹⁴C-Vorläufer gebildete Menge ¹⁴C-Cholesterin berechnet werden kann. Zum Vergleich für die Hemmwirkung eines zugesetzten Prüfpräparates dient die Kontrolle, so daß direkt die Hemmung der Cholesterinbiosynthese bei einer bestimmten molaren Konzentration des Prüfpräparates im Medium angegeben werden kann. In aliquoten Anteilen der Zellkultur wird die Intaktheit der Zellkultur und die fehlende Zellschädigung durch Präparateeinwirkung morphologisch (Lichtmikroskopie) beurteilt und biochemisch durch Bestimmung der Laktat-Dehydrogenase Ausschüttung im Inkubationsmedium gemessen. Als Standardpräparat wurde ®Lovastatin (Merck-Sharp-Dohm) benutzt.

Vaccina = assay: microbe, parasite or virus in culture; assay type: cell-based; conditions: 72 h, read-out: MHK

CC(=O)OC1/C=C/C(OC(C)=O)C(OC(C)=O)CC(=O)OC(C)C1 (stereo not shown) [Verbindung 6, 10-Methyl-1-oxa-4,5,8-triacetyloxy-6-cyclodecen-2-on]
EC50 (Herpes II): 0.55 µg/mL (≈ 1.61 µM) | MNTC at 72 h (in vitro): 133 µg/mL | EC50 (Rhinovirus II): 44.4 µg/mL (≈ 130 µM) | EC50 (Influenza A): 14 µg/mL (≈ 40.9 µM) | EC50 (Herpes I): 0.55 µg/mL (≈ 1.61 µM) | activity at 10 µM (Cholesterinbiosynthese; Konzentration 10⁻⁵ M): 32% | activity at 0.1 µM (Cholesterinbiosynthese; Konzentration 10⁻⁷ M): 30% | EC50 (Vaccina): 0.49 µg/mL (≈ 1.43 µM)

CC(=O)OC1CCC(O)C(O)CC(=O)OC(C)C1 (stereo not shown) [Verbindung 4, 8-Acetyloxy-4,5-dihydroxy-10-methyl-1-oxa-cyclodecan-2-on]
activity at 0.01 µM (Cholesterinbiosynthese): 45%

COC1C=CC(OC)C(OC)CC(=O)OC(C)C1 (stereo not shown) [Verbindung 3, 10-Methyl-4,5,8-trimethoxy-1-oxa-6-cyclodecen-2-on]
activity at 1 µM (Cholesterinbiosynthese; Konzentration 10⁻⁶ M): 28% | activity at 0.01 µM (Cholesterinbiosynthese): 33%

CC1CC(O)C2OC2C(O)C(O)CC(=O)O1 (stereo not shown) [Verbindung 5, 2-Carbonyl-10-methyl-1-oxa-4,5,8-trihydroxy-6-cyclodecenoxid]
activity at 0.01 µM (Cholesterinbiosynthese): 33%

CC1CC(O)CCC(O)C(O)CC(=O)O1 (stereo not shown) [Verbindung 15, 10-Methyl-1-oxa-4,5,8-trihydroxy-cyclodecan-2-on]
activity at 0.01 µM (Cholesterinbiosynthese): 73%

CC1CC(OC=O)C=CC(O)C(O)CC(=O)O1 (stereo not shown) [Verbindung 8, 4,5-Dihydroxy-8-formyl-oxy-10-methyl-1-oxa-6-cyclodecen-2-on]
activity at 0.01 µM (Cholesterinbiosynthese): 67%

CC1CC(O[C@H]2O[C@H](COCc3ccccc3)[C@@H](OCc3ccccc3)[C@H](OCc3ccccc3)[C@H]2OCc2ccccc2)CCC2OC(C)(C)OC2CC(=O)O1 (stereo partly drawn) [Verbindung 1, 4,5-Dihydroxy-O-isopropyliden-10-methyl-1-oxa-8(2,3,4,6-tetra-O-benzyl-α-D-glucopyranosyl-oxy)-2-cyclodecanon]
activity at 0.01 µM (Cholesterinbiosynthese): 41%

CC[C@H](C)C(=O)O[C@H]1C[C@@H](C)C=C2C=C[C@H](C)[C@H](CC[C@@H]3C[C@@H](O)CC(=O)O3)[C@H]21 [Lovastatin, reference compound]
activity at 0.01 µM (Cholesterinbiosynthese): 55%
